Experimental data published in paper PMC6120666 (The EMBO Journal, 2018).

Legend:
Test in all cases: Drug affinity chromatography with c-ponatinib and LC-MS/MS (ponatinib interactome)
Assay type in all cases: binding
[1] = molecular target: T1, proteins of U2OS cell lysate (Homo sapiens, UniProt P62854); details: RPS26;RPS26P11, 40S ribosomal protein S26
T1 construct: Proteins enriched by c-ponatinib from U2OS cell lysate; endogenous in cells; host or cells: U2OS cell lysate
Procedure, shortened: (§1)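 Proteins were identified by nano-UPLC–MS/MS after elution with formic acid and trypsin digestion. They were captured from U2OS lysate (2 mg protein per pulldown, NP-40 buffer) on amine-coupled NHS beads during a 2 h incubation at 4 °C.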

[2] = molecular target: T2, proteins of U2OS cell lysate (Homo sapiens, UniProt P62333); details: PSMC6, 26S protease regulatory subunit 10B
T2 construct: Proteins enriched by c-ponatinib from U2OS cell lysate; endogenous in cells; host or cells: U2OS cell lysate
Procedure, shortened: as §1

[3] = molecular target: T3, proteins of U2OS cell lysate (Homo sapiens, UniProt Q9UMS4); details: PRPF19, Pre-mRNA-processing factor 19
T3 construct: Proteins enriched by c-ponatinib from U2OS cell lysate; endogenous in cells; host or cells: U2OS cell lysate
Procedure, shortened: as §1

[4] = molecular target: T4, proteins of U2OS cell lysate (Homo sapiens, UniProt Q92973); details: TNPO1, Transportin-1
T4 construct: Proteins enriched by c-ponatinib from U2OS cell lysate; endogenous in cells; host or cells: U2OS cell lysate
Procedure, shortened: as §1

[5] = molecular target: T5, proteins of U2OS cell lysate (Homo sapiens, UniProt Q69YQ0); details: SPECC1L, Cytospin-A
T5 construct: Proteins enriched by c-ponatinib from U2OS cell lysate; endogenous in cells; host or cells: U2OS cell lysate
Procedure, shortened: as §1

[6] = molecular target: T6, proteins of U2OS cell lysate (Homo sapiens, UniProt P05556); details: ITGB1, Integrin beta-1
T6 construct: Proteins enriched by c-ponatinib from U2OS cell lysate; endogenous in cells; host or cells: U2OS cell lysate
Procedure, shortened: as §1

[7] = molecular target: T7, proteins of U2OS cell lysate (Homo sapiens, UniProt P16083); details: NQO2, Ribosyldihydronicotinamide dehydrogenase [quinone]
T7 construct: Proteins enriched by c-ponatinib from U2OS cell lysate; endogenous in cells; host or cells: U2OS cell lysate
Procedure, shortened: as §1

[8] = molecular target: T8, proteins of U2OS cell lysate (Homo sapiens, UniProt P55060); details: CSE1L, Exportin-2
T8 construct: Proteins enriched by c-ponatinib from U2OS cell lysate; endogenous in cells; host or cells: U2OS cell lysate
Procedure, shortened: as §1

[9] = molecular target: T9, proteins of U2OS cell lysate (Homo sapiens, UniProt Q9Y2D5); details: AKAP2, A-kinase anchor protein 2
T9 construct: Proteins enriched by c-ponatinib from U2OS cell lysate; endogenous in cells; host or cells: U2OS cell lysate
Procedure, shortened: as §1

[10] = molecular target: T10, proteins of U2OS cell lysate (Homo sapiens, UniProt P61247); details: RPS3A, 40S ribosomal protein S3a
T10 construct: Proteins enriched by c-ponatinib from U2OS cell lysate; endogenous in cells; host or cells: U2OS cell lysate
Procedure, shortened: as §1

[11] = molecular target: T11, proteins of U2OS cell lysate (Homo sapiens, UniProt Q13011); details: ECH1, Delta(3,5)-Delta(2,4)-dienoyl-CoA isomerase, mitochondrial
T11 construct: Proteins enriched by c-ponatinib from U2OS cell lysate; endogenous in cells; host or cells: U2OS cell lysate
Procedure, shortened: as §1

[12] = molecular target: T12, proteins of U2OS cell lysate (Homo sapiens, UniProt P60953); details: CDC42, Cell division control protein 42 homolog
T12 construct: Proteins enriched by c-ponatinib from U2OS cell lysate; endogenous in cells; host or cells: U2OS cell lysate
Procedure, shortened: as §1

[13] = molecular target: T13, proteins of U2OS cell lysate (Homo sapiens, UniProt O76071); details: CIAO1, Probable cytosolic iron-sulfur protein assembly protein CIAO1
T13 construct: Proteins enriched by c-ponatinib from U2OS cell lysate; endogenous in cells; host or cells: U2OS cell lysate
Procedure, shortened: as §1

[14] = molecular target: T14, proteins of U2OS cell lysate (Homo sapiens, UniProt P09038); details: FGF2, Fibroblast growth factor 2
T14 construct: Proteins enriched by c-ponatinib from U2OS cell lysate; endogenous in cells; host or cells: U2OS cell lysate
Procedure, shortened: as §1

[15] = molecular target: T15, proteins of U2OS cell lysate (Homo sapiens, UniProt O75821); details: EIF3G, Eukaryotic translation initiation factor 3 subunit G
T15 construct: Proteins enriched by c-ponatinib from U2OS cell lysate; endogenous in cells; host or cells: U2OS cell lysate
Procedure, shortened: as §1

[16] = molecular target: T16, proteins of U2OS cell lysate (Homo sapiens, UniProt P54753); details: EPHB3, Ephrin type-B receptor 3
T16 construct: Proteins enriched by c-ponatinib from U2OS cell lysate; endogenous in cells; host or cells: U2OS cell lysate
Procedure, shortened: as §1

[17] = molecular target: T17, proteins of U2OS cell lysate (Homo sapiens, UniProt Q9UPT5); details: EXOC7, Exocyst complex component 7
T17 construct: Proteins enriched by c-ponatinib from U2OS cell lysate; endogenous in cells; host or cells: U2OS cell lysate
Procedure, shortened: as §1

[18] = molecular target: T18, proteins of U2OS cell lysate (Homo sapiens, UniProt P45880); details: captured protein VDAC2, Rank 163
T18 construct: Proteins enriched by c-ponatinib from U2OS cell lysate; endogenous in cells; host or cells: U2OS cell lysate
Procedure, shortened: as §1

[19] = molecular target: T19, proteins of U2OS cell lysate (Homo sapiens, UniProt P62316); details: captured protein SNRPD2, Rank 185
T19 construct: Proteins enriched by c-ponatinib from U2OS cell lysate; endogenous in cells; host or cells: U2OS cell lysate
Procedure, shortened: as §1

T9 sequence (Q9Y2D5 whole entry): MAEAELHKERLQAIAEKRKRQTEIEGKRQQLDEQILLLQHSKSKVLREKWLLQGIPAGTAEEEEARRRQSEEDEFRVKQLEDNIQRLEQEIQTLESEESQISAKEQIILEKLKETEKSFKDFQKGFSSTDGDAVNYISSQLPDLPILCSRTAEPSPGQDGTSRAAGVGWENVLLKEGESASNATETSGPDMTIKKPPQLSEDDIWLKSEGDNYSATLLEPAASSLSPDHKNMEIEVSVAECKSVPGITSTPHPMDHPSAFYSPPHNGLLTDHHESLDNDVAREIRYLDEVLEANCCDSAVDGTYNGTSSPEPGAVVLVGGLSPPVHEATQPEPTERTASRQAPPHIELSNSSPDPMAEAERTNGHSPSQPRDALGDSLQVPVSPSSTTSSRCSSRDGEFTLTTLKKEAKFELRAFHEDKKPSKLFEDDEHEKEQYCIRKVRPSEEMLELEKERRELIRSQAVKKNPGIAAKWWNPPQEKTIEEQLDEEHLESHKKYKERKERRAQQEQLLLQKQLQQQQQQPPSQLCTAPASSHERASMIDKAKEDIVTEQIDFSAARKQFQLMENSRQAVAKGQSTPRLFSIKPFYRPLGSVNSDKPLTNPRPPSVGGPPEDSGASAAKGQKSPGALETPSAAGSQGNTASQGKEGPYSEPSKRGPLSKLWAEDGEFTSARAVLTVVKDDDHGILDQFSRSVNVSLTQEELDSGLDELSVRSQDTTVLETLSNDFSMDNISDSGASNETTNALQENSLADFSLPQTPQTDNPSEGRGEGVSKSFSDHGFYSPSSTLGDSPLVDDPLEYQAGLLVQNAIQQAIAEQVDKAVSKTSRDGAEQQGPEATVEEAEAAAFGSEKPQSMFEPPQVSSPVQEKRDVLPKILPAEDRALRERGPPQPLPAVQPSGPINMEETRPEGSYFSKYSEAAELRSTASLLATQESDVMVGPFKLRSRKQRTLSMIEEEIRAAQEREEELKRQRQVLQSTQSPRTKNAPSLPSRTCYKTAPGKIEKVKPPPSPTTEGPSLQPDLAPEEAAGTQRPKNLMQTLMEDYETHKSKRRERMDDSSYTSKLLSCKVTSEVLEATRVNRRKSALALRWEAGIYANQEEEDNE
T7 sequence (P16083 whole entry): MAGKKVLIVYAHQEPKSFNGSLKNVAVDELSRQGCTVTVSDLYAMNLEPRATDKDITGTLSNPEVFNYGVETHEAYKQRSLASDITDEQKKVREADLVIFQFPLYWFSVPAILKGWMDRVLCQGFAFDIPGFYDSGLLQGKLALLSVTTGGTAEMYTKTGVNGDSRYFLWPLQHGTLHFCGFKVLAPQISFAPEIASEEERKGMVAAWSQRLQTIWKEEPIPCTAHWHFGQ
T17 sequence (Q9UPT5 whole entry): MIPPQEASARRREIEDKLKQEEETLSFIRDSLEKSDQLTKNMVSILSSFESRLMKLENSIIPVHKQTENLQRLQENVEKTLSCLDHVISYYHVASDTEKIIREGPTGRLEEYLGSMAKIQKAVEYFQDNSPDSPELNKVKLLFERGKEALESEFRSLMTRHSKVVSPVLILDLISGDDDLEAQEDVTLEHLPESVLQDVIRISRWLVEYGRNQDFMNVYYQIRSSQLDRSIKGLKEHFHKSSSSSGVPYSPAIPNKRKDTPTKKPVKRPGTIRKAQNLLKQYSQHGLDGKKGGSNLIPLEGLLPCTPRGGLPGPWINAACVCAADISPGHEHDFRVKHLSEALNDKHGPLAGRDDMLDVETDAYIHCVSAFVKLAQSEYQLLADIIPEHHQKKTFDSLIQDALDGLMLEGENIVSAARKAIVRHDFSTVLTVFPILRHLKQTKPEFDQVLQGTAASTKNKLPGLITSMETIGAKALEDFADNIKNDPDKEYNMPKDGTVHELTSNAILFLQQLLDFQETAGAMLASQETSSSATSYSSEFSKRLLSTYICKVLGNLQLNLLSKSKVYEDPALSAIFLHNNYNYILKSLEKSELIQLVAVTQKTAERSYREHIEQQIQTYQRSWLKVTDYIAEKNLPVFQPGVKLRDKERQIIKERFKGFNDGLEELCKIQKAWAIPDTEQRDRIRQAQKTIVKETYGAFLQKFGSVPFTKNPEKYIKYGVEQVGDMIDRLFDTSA
T6 sequence (P05556 21-798): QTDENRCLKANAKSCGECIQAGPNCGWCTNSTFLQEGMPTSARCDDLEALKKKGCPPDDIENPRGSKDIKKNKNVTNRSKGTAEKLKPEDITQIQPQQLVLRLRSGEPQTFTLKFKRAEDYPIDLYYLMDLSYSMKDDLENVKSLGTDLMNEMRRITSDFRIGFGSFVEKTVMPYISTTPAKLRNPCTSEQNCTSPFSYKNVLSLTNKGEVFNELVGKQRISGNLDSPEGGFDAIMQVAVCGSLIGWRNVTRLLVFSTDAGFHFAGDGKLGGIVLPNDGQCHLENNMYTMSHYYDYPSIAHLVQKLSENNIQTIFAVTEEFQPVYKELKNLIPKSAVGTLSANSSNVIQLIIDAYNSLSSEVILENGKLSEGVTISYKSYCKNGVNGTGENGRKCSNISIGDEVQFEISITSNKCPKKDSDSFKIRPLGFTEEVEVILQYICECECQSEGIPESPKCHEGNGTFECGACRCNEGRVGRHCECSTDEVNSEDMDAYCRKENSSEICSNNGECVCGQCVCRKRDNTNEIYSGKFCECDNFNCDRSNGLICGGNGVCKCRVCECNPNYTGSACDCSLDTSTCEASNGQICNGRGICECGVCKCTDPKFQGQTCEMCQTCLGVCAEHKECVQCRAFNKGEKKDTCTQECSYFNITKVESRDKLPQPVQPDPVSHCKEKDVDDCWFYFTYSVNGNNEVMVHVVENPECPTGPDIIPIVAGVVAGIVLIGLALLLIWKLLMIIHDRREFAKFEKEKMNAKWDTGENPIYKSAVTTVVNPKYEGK
T8 sequence (P55060 whole entry): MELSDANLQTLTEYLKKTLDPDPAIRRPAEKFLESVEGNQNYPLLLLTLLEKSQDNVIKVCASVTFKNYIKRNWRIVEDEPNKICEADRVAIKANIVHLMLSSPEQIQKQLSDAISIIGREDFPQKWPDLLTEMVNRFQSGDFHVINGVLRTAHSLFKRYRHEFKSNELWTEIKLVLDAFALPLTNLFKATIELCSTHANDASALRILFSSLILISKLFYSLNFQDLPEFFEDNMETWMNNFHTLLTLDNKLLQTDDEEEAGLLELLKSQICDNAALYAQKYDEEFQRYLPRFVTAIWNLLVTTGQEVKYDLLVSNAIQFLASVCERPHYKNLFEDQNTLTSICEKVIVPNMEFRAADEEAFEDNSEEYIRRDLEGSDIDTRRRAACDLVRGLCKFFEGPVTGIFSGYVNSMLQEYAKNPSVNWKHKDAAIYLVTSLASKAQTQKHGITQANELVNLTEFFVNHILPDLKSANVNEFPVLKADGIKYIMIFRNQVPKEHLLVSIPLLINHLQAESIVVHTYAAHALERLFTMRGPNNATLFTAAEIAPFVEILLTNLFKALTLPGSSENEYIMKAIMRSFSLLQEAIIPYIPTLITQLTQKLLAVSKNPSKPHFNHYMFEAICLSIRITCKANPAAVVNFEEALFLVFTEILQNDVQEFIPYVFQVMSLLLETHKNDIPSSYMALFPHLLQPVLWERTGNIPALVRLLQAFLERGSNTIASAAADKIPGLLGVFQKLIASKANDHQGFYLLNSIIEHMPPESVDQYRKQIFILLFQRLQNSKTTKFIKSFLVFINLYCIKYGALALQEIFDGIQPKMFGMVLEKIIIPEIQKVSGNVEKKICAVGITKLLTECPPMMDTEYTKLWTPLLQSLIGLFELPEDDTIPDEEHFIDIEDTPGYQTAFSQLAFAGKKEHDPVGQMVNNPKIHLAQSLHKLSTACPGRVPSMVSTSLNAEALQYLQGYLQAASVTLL
T15 sequence (O75821 whole entry): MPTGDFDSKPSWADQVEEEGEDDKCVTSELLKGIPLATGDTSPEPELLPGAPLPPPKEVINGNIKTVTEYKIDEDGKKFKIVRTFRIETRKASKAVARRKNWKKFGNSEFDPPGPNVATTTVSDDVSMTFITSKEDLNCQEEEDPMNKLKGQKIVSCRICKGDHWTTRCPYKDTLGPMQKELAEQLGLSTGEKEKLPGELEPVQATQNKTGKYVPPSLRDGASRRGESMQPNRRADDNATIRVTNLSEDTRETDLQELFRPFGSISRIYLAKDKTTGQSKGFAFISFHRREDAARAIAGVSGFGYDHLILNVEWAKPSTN
T18 sequence (P45880 whole entry): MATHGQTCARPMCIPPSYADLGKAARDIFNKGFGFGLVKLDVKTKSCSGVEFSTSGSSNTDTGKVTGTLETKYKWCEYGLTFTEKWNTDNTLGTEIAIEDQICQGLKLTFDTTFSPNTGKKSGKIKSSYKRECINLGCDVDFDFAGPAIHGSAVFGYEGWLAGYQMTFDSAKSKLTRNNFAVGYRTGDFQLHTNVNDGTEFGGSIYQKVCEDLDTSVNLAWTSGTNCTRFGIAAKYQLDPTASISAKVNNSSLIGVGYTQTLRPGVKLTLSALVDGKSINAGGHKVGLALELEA
T2 sequence (P62333 whole entry): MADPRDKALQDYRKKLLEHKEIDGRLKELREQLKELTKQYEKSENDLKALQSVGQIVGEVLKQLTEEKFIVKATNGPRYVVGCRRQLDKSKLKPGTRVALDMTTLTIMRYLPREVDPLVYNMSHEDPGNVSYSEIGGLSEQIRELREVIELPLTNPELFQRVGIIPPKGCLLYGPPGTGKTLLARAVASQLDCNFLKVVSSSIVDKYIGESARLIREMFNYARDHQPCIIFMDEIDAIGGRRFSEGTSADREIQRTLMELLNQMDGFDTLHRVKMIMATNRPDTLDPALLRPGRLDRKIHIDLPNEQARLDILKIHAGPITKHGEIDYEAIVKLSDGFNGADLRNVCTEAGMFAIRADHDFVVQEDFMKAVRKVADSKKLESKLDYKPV
T19 sequence (P62316 whole entry): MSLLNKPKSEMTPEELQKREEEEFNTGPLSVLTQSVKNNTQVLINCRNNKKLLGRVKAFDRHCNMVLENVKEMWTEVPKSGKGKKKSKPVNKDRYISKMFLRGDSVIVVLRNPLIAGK

Compound	Average LFQ PON_WT [1]	Average LFQ PON_WT [2]	Average LFQ PON_WT [3]	Average LFQ PON_WT [4]	Average LFQ PON_WT [5]	Average LFQ PON_WT [6]	Average LFQ PON_WT [7]	Average LFQ PON_WT [8]	Average LFQ PON_WT [9]	Average LFQ PON_WT [10]	Average LFQ PON_WT [11]	Average LFQ PON_WT [12]	Average LFQ PON_WT [13]	Average LFQ PON_WT [14]	Average LFQ PON_WT [15]	Average LFQ PON_WT [16]	Average LFQ PON_WT [17]	Average LFQ intensity [18]	Average LFQ intensity [19]
Cc1ccc(C(=O)Nc2ccc(CN3CCN(C)CC3)c(C(F)(F)F)c2)cc1C#Cc1cnc2cccnn12 [PON]	21.6239	21.4756	21.24	24.7772	20.8707	20.3187	24.6177	25.3839	19.1683	21.3119	25.3624	20.531	21.1391	20.5832	21.2492	21.3076	19.8682		
Cc1ccc(C(=O)Nc2ccc(CN3CCN(CCCN)CC3)c(C(F)(F)F)c2)cc1C#Cc1cnc2cccnn12 [c-ponatinib, reference compound]																		22.3592	22.0908
